The numbers were not newly measured in patent US20140199404A1, “METHOD FOR TREATING CANCER BASED ON LEVEL OF A NUCLEOSIDE TRANSPORTER” (ABRAXIS BIOSCIENCE, LLC, priority 2013, published 2014), which cites them from elsewhere.

For series [1], the system named is locally advanced pancreatic cancer. The conditions noted are these: patients with locally advanced pancreatic cancer.
Series [2] deals with pancreatic cancer. Conditions: Moore et al. 2007.

Molecules are shown by their SMILES.

On to `O=c1[nH]cc(F)c(=O)[nH]1` [5-FU, 5-fluororuracil], for which, in series [1], the median overall survival is 4.2 months and the “median time to disease progression” value was 0.9 months.

In the case of `Nc1ccn([C@@H]2O[C@H](CO)[C@@H](O)C2(F)F)c(=O)n1` [gemcitabine], in series [1], the median overall survival was 5.7 months and the “median time to disease progression” value is recorded as 2.1 months. In series [2], the median overall survival is 6.0 months and the “median progression free survival” value is 3.5 months.
